Like-named read-outs stand apart in the source and are kept apart here.
Columns and labels:
[1] = system: E. coli DH5α producing individual β-lactamases; assay: Broth microdilution MIC in engineered strains (BLI fixed at 4 μg/ml); type: cell-based, Escherichia coli; details: panel of 34 strains
Experimental: The spectrum of antibacterial activity of cefepime-taniborbactam and the breadth of inhibitory activity of this next-generation cyclic boronate BLI were assessed in 34 engineered E. coli strains each overproducing an individual β-lactamase and directly compared to those of the clinically approved agent ceftazidime-avibactam. In this manner, the antibacterial activity of the BL-BLI combinations relative to that of the partnered cephalosporins alone provided a quantitative measure of β-lactam potentiation that directly reflects the levels of inhibition of β-lactamase function achieved by addition of BLI. The BLI concentration was fixed at 4 μg/ml, as described in Materials and Methods.
The isogenic strains were used to establish a spectrum of inhibitory activity against 34 β-lactamases that were engineered into E. coli DH5α cells carrying chromosomal AmpC (ESC-1), a non-ESBL enzyme unable to hydrolyze these third- or fourth-generation cephalosporins. […]. The DNA fragments containing the promoter, the signal sequence, and each β-lactamase-coding gene were synthesized and cloned into pTwist Chlor High Copy in DH5α at Twist Bioscience. The individual expression plasmids along with their GenBank accession numbers are listed in Table S2 in the supplemental material and below. The protein sequences of β-lactamases were obtained from the Beta-Lactamase DataBase (www.bldb.eu) ([47]). Expression of the β-lactamases was confirmed by verifying decreased susceptibility to example test antibiotics that are known substrates of the enzymes. E. coli DH5α carrying pTU501, which expressed only the TEM-1 signal sequence from the bla promoter, was used as a control. The plasmid sequences are available through GenBank (Table S2).
(§1) The in vitro antibacterial activity of the β-lactams alone or in combination with the BLIs was determined in cation-adjusted Mueller-Hinton broth (CAMHB) microdilution assays according to CLSI recommendations ([51]). […]. The inocula for the broth microdilution assays were prepared by the broth culture method ([51]). […]

E. coli = assay: microbe, parasite or virus in culture; type: cell-based; details: Escherichia coli, read-out: MIC
Excerpt: (§2) The antibacterial activity of cefepime-taniborbactam was compared to that of ceftazidime-avibactam, ceftolozane-tazobactam, and cefepime-tazobactam against a diverse panel of Enterobacterales and P. aeruginosa clinical isolates with defined β-lactamase subtypes (see Table S1 in the supplemental material). IMP-producing strains were excluded, as none of the BLI-protected cephalosporins inhibited IMP sufficiently to provide a clinically relevant rescue of the partner β-lactam, a characteristic also shared by approved BLI-protected carbapenems (meropenem-vaborbactam and imipenem-relebactam). […] The antibacterial activity of the cephalosporins alone was included to ascertain the level of potentiation by the partnered BLI. BLIs were tested at a fixed concentration of 4 μg/ml in all combinations except cefepime-tazobactam, where tazobactam was fixed at a concentration of 8 μg/ml ([38]). The collection comprised 143 clinical isolates collected from 2005 and 2018.
as §1

K. pneumoniae = assay: microbe, parasite or virus in culture; type: cell-based; details: Klebsiella pneumoniae, read-out: MIC
Excerpt: as §2, §1

P. aeruginosa = assay: microbe, parasite or virus in culture; type: cell-based; details: Pseudomonas aeruginosa, read-out: MIC
Excerpt: as §2, §1

[2] = system: Enterobacterales clinical isolates; assay: MIC distributions in panels of clinical isolates (MIC50, MIC90, % susceptible); type: cell-based
Experimental: (§3) The antibacterial activity of the cephalosporins alone was included to ascertain the level of potentiation by the partnered BLI. BLIs were tested at a fixed concentration of 4 μg/ml in all combinations except cefepime-tazobactam, where tazobactam was fixed at a concentration of 8 μg/ml ([38]).
(§4) The in vitro antibacterial activity of the β-lactams alone or in combination with the BLIs was determined in cation-adjusted Mueller-Hinton broth (CAMHB) microdilution assays according to CLSI recommendations ([51]). […] The inocula for the broth microdilution assays were prepared by the broth culture method ([51]).

[3] = system: P. aeruginosa clinical isolates; assay: microbe, parasite or virus in culture; type: cell-based, Pseudomonas aeruginosa
Experimental: as §3, §4

[4] = system: E. coli, K. pneumoniae, and P. aeruginosa reference type isolates; assay: MIC against panel of seven reference type isolates; type: cell-based
Experimental: […]. This panel encompassed 3 E. coli, 2 K. pneumoniae, and 2 P. aeruginosa isolates and included four quality control (QC) isolates for broth microdilution ([37]). […]. Among the β-lactamase-producing Enterobacterales isolates, E. coli NCTC 13353 producing CTX-M-15 and K. pneumoniae BAA-1705 producing KPC-2 are routine QC isolates used for the testing of cefepime-taniborbactam ([37]). […].
as §1

[5] = system: DrugMatrixScreen panel of pharmacological targets; assay: DrugMatrixScreen panel (binding, enzymatic, uptake assays; Eurofins/Panlabs); details: 100 μM
CTX-M-15 [6] = target: T1, CTX-M-15 (Escherichia coli, UniProt Q9EXV5); details: half-life of active-site occupancy
T1 sequence (Q9EXV5 29-291, species assumed): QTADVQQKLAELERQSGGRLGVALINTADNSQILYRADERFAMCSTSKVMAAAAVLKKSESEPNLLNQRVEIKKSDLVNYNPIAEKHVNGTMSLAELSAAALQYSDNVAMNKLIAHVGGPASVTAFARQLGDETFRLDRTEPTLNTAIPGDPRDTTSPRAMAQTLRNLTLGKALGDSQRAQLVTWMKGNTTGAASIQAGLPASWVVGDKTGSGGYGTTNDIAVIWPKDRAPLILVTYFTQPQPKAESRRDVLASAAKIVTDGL
Experimental: (§5) A reversible two-step inhibition model was fit to the data.
(§6) Pseudo-first-order rate constants of enzyme inactivation (kobs) were determined in the presence of various inhibitor concentrations by fitting equation 2 to the time courses.(2) P=Vst+(V0−Vs)(1−e^−kt)/k where P is product, Vs is rate at steady state, t is time, V0 is initial velocity, and k is rate of inactivation. A plot of kobs versus the inhibitor concentrations generated a linear plot with a slope of (k2/Ki) and a y intercept of k−2 (equation 3). The reported values were corrected for the substrate concentration and the Km for each substrate-enzyme combination, as defined by the 1 + ([S]/Km) term in equation 4, where S is the substrate concentration, used to obtain the second-order rate constant k2/Ki and the off rate (k−2). The error values reported are standard errors from the fit.(3) kobs=k−2+(k2/Ki)[I]/[1+([S]/Km)]
(§7) The percentage of enzyme activity at each assay point was determined by comparison to the activity of the enzyme in the absence of inhibitor, and the recovery of enzymatic activity was fit to a single exponential with the associated standard deviation.

KPC-2 [7] = target: T2, KPC-2 (Klebsiella pneumoniae, UniProt Q9F663); details: half-life of active-site occupancy
T2 sequence (Q9F663 25-293, looked up, species assumed): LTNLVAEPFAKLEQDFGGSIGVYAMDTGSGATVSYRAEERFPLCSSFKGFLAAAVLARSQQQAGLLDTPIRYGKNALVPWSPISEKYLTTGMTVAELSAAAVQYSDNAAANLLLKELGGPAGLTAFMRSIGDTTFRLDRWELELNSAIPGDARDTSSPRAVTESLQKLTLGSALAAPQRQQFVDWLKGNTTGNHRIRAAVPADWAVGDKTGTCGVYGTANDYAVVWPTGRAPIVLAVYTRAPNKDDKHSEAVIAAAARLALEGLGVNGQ
Experimental: as §5, §6, §7

P99 AmpC [8] = target: T3, P99 AmpC (Enterobacter cloacae, UniProt P05364); details: half-life of active-site occupancy
T3 sequence (P05364 21-381): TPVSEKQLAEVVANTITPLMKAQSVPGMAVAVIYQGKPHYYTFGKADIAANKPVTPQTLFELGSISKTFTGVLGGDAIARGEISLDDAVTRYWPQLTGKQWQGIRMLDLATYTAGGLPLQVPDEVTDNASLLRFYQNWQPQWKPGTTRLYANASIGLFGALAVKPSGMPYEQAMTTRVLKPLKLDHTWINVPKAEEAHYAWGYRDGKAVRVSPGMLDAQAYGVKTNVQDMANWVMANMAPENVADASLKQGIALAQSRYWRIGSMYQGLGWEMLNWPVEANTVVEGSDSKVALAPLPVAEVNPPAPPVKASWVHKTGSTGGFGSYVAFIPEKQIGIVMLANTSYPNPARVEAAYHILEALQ
Experimental: as §5, §6, §7

CTX-M-15 [9] = target: T1, CTX-M-15; assay: biochemical
Experimental: as §5, §6, §7

KPC-2 [10] = target: T2, KPC-2; assay: biochemical
Experimental: as §5, §6, §7

P99 AmpC [11] = target: T3, P99 AmpC; assay: biochemical
Experimental: as §5, §6, §7

OXA-48 = OXA-48 (Klebsiella pneumoniae, UniProt Q6XEC0); assay: Ki* determination, imipenem substrate
Chain of OXA-48 (Q6XEC0 23-265, looked up, species assumed): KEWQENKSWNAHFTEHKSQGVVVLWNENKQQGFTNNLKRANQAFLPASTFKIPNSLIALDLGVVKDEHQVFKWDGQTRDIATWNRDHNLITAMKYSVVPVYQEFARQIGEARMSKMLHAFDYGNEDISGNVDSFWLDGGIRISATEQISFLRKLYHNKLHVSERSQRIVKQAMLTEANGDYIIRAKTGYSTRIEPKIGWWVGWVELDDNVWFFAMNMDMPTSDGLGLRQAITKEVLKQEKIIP
Experimental: as §6

IMP-1 = IMP-1 (Serratia marcescens, UniProt P52699); assay: Inhibition assay, nitrocefin substrate; details: class B
Chain of IMP-1 (P52699 19-246 limits assumed): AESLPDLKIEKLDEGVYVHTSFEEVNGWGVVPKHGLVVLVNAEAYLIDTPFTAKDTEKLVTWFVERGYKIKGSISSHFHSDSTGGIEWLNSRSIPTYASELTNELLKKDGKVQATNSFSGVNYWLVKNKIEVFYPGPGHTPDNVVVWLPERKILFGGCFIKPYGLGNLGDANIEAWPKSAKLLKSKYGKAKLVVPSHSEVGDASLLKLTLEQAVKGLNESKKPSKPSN

SHV-5 = SHV-5 (Klebsiella pneumoniae, UniProt P0A3M1); assay: Ki* determination, cefotaxime substrate
Chain of SHV-5 (P0A3M1 22-286): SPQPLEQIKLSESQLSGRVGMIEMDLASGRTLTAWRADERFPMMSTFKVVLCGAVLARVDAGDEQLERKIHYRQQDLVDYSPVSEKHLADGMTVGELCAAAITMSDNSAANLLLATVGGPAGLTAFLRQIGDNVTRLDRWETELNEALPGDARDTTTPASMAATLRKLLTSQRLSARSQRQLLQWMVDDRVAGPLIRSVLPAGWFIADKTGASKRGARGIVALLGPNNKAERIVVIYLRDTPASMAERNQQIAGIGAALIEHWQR
Experimental: as §6

VIM-2 = VIM-2 (Escherichia coli, UniProt Q5U7L7); assay: Steady-state competitive inhibition, nitrocefin substrate
NDM-1 = NDM-1 (Klebsiella pneumoniae, UniProt C7C422); assay: Steady-state competitive inhibition, cefotaxime substrate
Chain of NDM-1 (C7C422 29-270, looked up, species assumed): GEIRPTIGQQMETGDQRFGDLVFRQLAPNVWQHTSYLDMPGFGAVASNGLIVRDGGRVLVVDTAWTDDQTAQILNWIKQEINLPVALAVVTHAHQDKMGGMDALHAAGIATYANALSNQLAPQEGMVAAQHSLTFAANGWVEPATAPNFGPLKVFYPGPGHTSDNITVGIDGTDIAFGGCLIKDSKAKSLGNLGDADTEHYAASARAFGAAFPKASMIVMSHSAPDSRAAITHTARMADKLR

[12] = system: VIM-2 and NDM-1 metallo-β-lactamases; assay: Inhibition of VIM-2 and NDM-1 MBLs (modality, reversibility, range); details: up to 50 μM
[13] = system: serine β-lactamases (SBLs); assay: Kinetic parameters and Ki, ranges over serine β-lactamases; details: CTX-M-15, P99 AmpC, and KPC-2
Experimental: as §5, §6, §7

SMILES	modal potentiation of partner cephalosporin MIC [1]	t1/2 (CTX-M-15 [6])	t1/2 (KPC-2 [7])	t1/2 (P99 AmpC [8])	Ki (CTX-M-15 [9])	Ki (KPC-2 [10])	Ki (P99 AmpC [11])	Ki (OXA-48)	Ki (IMP-1)	Ki (VIM-2)	Ki (NDM-1)	inhibition of MBLs [12]	also measured
NCCN[C@H]1CC[C@H](CC(=O)N[C@H]2Cc3cccc(C(=O)O)c3OB2O)CC1 [Taniborbactam]	512 fold	34 ± 2 min	105 ± 5 min	30 ± 3 min	17 ± 2 nM	4 ± 1 nM	2 ± 0.3 nM	350 ± 7 nM	≥ 30000 nM	19 ± 1 nM	–	–	MIC (E. coli; ATCC25922, E. coli ATCC 25922, enzyme content None): 512 µg/mL; MIC (E. coli; E. coli CDC-0452, NDM): 512 µg/mL; MIC (E. coli; NCTC13353, E. coli NCTC 13353, CTX-M-15): 512 µg/mL; MIC (K. pneumoniae; ATCC13883, K. pneumoniae ATCC 13883, enzyme content None): 512 µg/mL; MIC (K. pneumoniae; BAA1705, K. pneumoniae BAA 1705, KPC-2): 1020 µg/mL; MIC (P. aeruginosa; ATCC27853, P. aeruginosa ATCC 27853, PDC-5): 1020 µg/mL; MIC (P. aeruginosa; P. aeruginosa CDC-0457, VIM): 1020 µg/mL; MIC90 [2]: 1 µg/mL; MIC90 ([3]; Pseudomonas aeruginosa, all 41 isolates of P. aeruginosa): 4 µg/mL; MIC [4]: ≥ 512 µg/mL; antibacterial activity alone ([4]; taniborbactam alone): lacks antibacterial activity; inhibition, off-target ([5]; 128 of 129 in vitro assays): ≤ 23%; inhibition ([5]; the one exception, a β-lactamase): > 50%; Ki (SHV-5): 3 ± 0.2 nM
NC(=O)[C@@H]1CC[C@@H]2CN1C(=O)N2OS(=O)(=O)O [Avibactam]	64 fold	29 ± 1 min	66 ± 4 min	249 ± 19 min	11 ± 1 nM	–	13 ± 0.3 nM	–	> 30000 nM	> 30000 nM	> 30000 nM	no significant inhibition	–
O=C(O)C[C@@H]1CC[C@H](NC(=O)Cc2cccs2)B(O)O1 [Vaborbactam]	–	5 ± 0.2 min	21 ± 2 min	32 ± 3 min	158 ± 6 nM	22 ± 2 nM	53 ± 4 nM	350 ± 7 nM	> 30000 nM	> 30000 nM	> 30000 nM	no significant inhibition	koff (CTX-M-15 [9]): 0.0023 ± 9e-05 s⁻¹; kinact/KI (CTX-M-15 [9]; pH 7, read-out: k2/Ki): 1100 ± 100 M⁻¹ s⁻¹; koff (KPC-2 [10]): 0.00054 ± 5e-05 s⁻¹; kinact/KI (KPC-2 [10]; pH 7, read-out: k2/Ki): 1200 ± 100 M⁻¹ s⁻¹; koff (P99 AmpC [11]): 0.00037 ± 3e-05 s⁻¹; kinact/KI (P99 AmpC [11]; pH 7, read-out: k2/Ki): 1800 ± 100 M⁻¹ s⁻¹; second-order rate constants (k2/Ki), order of magnitude [13]: ~10^3 M^−1 s^−1
C[C@]1(Cn2ccnn2)[C@H](C(=O)O)N2C(=O)C[C@H]2S1(=O)=O [tazobactam]	–	–	–	–	–	–	–	–	–	–	–	–	fold reduction of cefepime MIC90 by addition of BLI ([3]; 14 isolates, subdivision 3): 2 fold; fold reduction of ceftolozane MIC90 by addition of BLI ([3]; 14 isolates, subdivision 3): 4 fold

Reference: publication PMC7038240 (Antimicrobial Agents and Chemotherapy, 2020)
